{"source": "paper PMC10622577", "about": "“Structural basis for stabilisation of the RAD51 nucleoprotein filament by BRCA2” (Nature Communications, 2023)", "key": {"RAD51 D184A": {"system": "RAD51 D184A", "experiment": "EMSA of BRC4 disruption of NPF formation, RAD51 D184A", "assay_type": "binding, human", "conditions": "BRC4 pre-mixed with RAD51 10 min, room temperature, before addition of ss- or dsDNA, performed once", "procedure": "(§1) To test whether the acidic patch was also required for BRC4 binding to RAD51, we examined whether the interaction of a BRC4 peptide spanning BRCA2 amino acids 1514 to 1548 was impacted by the D184A and D184A, D187 mutations.\n(§2) To assess RAD51 nucleoprotein (NPF) formation, wild-type and mutant RAD51 proteins were incubated with DNA in buffer: 25 mM HEPES pH 7.5, 150 mM NaCl, 2 mM DTT, 2 mM ATP, 5 mM CaCl2 for 15 minutes at room temperature. For filament binding of the TR2 peptide or His6-MBP-TR2 protein, the RAD51 NPFs were incubated with TR2 for further 5 minutes at room temperature. For filament binding of BRC4, the BRC4 peptide was pre-mixed with RAD51 for 10 minutes at room temperature before addition of DNA. For experiments with mono-streptavidin (mSA)-capped DNA, mSA (Sigma) was added in 5× molar excess of biotin labels for 15 minutes at room temperature prior to the addition of RAD51. Concentrations are provided in figures and DNA sequences for each experiment are reported in Supplementary Table 1.\n(§3) Before electrophoresis, samples were mixed with a 0.5:1 volume of 50% (w/v) sucrose solution and analysed on a pre-run 0.5% (w/v) agarose gel in 0.5× TB buffer at 35 V for 2.5 hours at 4 °C. DNA was visualised by excitation of the fluorescent tag or, in the case of unlabelled DNA, by SYBR Gold staining. […]"}, "RAD51 D184A, D187A": {"system": "RAD51 D184A, D187A", "experiment": "EMSA of BRC4 disruption of NPF formation, RAD51 D184A, D187A", "assay_type": "binding, human", "conditions": "BRC4 pre-mixed with RAD51 10 min, room temperature, before addition of ss- or dsDNA, performed once", "procedure": "as §1, §2, §3"}, "wild-type RAD51 NPF": {"system": "wild-type RAD51 NPF", "experiment": "SPR of BRC4-induced disassembly of wild-type RAD51 NPF", "assay_type": "binding, human", "conditions": "BRC4 0.1-15 μM, 120 s, CMA buffer pH 7.4, response minima, ss- and dsDNA, n = 3", "procedure": "(§4) We investigated further the effect of the acidic patch mutations on TR2 binding using surface plasmon resonance (SPR). We developed an SPR assay whereby increasing amounts of TR2 peptide were added to RAD51 NPFs that had been assembled on biotinylated DNA coupled to a streptavidin chip (Supplementary Fig. 3A, Supplementary Table 1). […] We used the same SPR assay to assess the effect of the mutations on the ability of BRC4 to disrupt an established filament (Supplementary Fig. 4A, Supplementary Table 1).\n(§5) All SPR experiments were performed using a Biacore T200 instrument and an S-series SA (Streptavidin) sensor chip. A single chip was used to immobilise biotinylated single- and double-stranded DNA in buffer: 25 mM HEPES pH 7.4, 100 mM NaCl, 1 mM EDTA. ssDNA and dsDNA were immobilised in different channels to a signal of 120 RU and 250 RU, respectively.\n(§6) All binding experiments were performed in CMA buffer: 25 mM HEPES pH 7.4, 100 mM NaCl, 2 mM DTT, 2 mM ATP, 5 mM CaCl2, 5 mM MgCl2. 1 μM RAD51 (wild-type, D184A or D184A, D187A mutant proteins) was injected for 120 seconds followed by buffer for 120 seconds at a flow rate of 10 μl/min. TR2 or BRC4 peptides were then injected in a concentration titration series of 0.1, 0.25, 0.5, 0.75, 1, 2, 3, 5, 7.5, 10 and 15 μM for 120 seconds at a flow rate of […] followed by a dissociation time of 240 seconds. […]"}, "RAD51 D184A NPF": {"system": "RAD51 D184A NPF", "experiment": "SPR of BRC4-induced disassembly of RAD51 D184A NPF", "assay_type": "binding, human", "conditions": "BRC4 0.1-15 μM, 120 s, CMA buffer pH 7.4, response minima, ss- and dsDNA, n = 3", "procedure": "as §4, §5, §6"}, "RAD51 D184A, D187A NPF": {"system": "RAD51 D184A, D187A NPF", "experiment": "SPR of BRC4-induced disassembly of RAD51 D184A, D187A NPF", "assay_type": "binding, human", "conditions": "BRC4 0.1-15 μM, 120 s, CMA buffer pH 7.4, response minima, ss- and dsDNA, n = 3", "procedure": "as §4, §5, §6"}, "RAD51;BRCA2 TR2 peptide [1]": {"target": "T1, RAD51;BRCA2 TR2 peptide (Homo sapiens;Homo sapiens, UniProt Q06609;P51587 1-339;, |)", "experiment": "cryo-EM structure; mSA caps; no bundling; EMSA: 25 mM HEPES pH 7.5, 150 mM NaCl, 2 mM DTT, 2 mM ATP, 5 mM CaCl2, room temperature; SPR: 25 mM HEPES pH 7.4, 100 mM NaCl, 2 mM DTT, 2 mM ATP, 5 mM CaCl2, 5 mM MgCl2", "conditions": "tags: untagged (co-expressed with His6-MBP-BRC4, pMBP4-RAD51);; label: 5' biotin on both strands; 3' Cy3 on strand 1; blunt ends, internal mismatched bubble about 10 nt"}, "RAD51;BRCA2 TR2 peptide [2]": {"target": "T1, RAD51;BRCA2 TR2 peptide", "experiment": "cryo-EM structure; mSA caps; EMSA: 25 mM HEPES pH 7.5, 150 mM NaCl, 2 mM DTT, 2 mM ATP, 5 mM CaCl2, room temperature; SPR: 25 mM HEPES pH 7.4, 100 mM NaCl, 2 mM DTT, 2 mM ATP, 5 mM CaCl2, 5 mM MgCl2", "conditions": "tags: untagged (co-expressed with His6-MBP-BRC4, pMBP4-RAD51);; label: 5' and 3' biotin"}}}
{"molecule": "EKIKEPTLLGFHTASGKKVKIAKESLDKVKNLFDE [BRC4, BRC4 peptide spanning BRCA2 amino acids 1514 to 1548]", "values": [{"measurement": "ability of BRC4 to disrupt RAD51 NPF formation", "setting": "RAD51 D184A", "value": "moderately reduced"}, {"measurement": "ability of BRC4 to disrupt RAD51 NPF formation", "setting": "RAD51 D184A, D187A", "value": "severely impaired"}, {"measurement": "disassembly of an established RAD51 NPF by BRC4", "setting": "wild-type RAD51 NPF", "value": "able to induce disassembly of a wild-type RAD51 NPF"}, {"measurement": "disassembly of an established RAD51 NPF by BRC4 relative to wild-type", "setting": "RAD51 D184A NPF", "value": "moderately reduced"}, {"measurement": "disassembly of an established RAD51 NPF by BRC4, reduction relative to wild-type", "setting": "RAD51 D184A, D187A NPF", "value": "to a large degree"}]}
{"molecule": "50-nt dsDNA doubly biotinylated Cy3 (dsDNA) DNA 1: CCGACTGACGCTCAACATAGGTACCACACGGCGAGCTCGATGCACCTCCA DNA 2: TGGAGGTGCATCGAGCTCGCGACAAACCTTCTATGTTGAGCGTCAGTCGG", "values": [{"measurement": "binding result", "setting": "RAD51;BRCA2 TR2 peptide [1]", "value": "binds"}]}
{"molecule": "60-nt ssDNA doubly biotinylated (ssDNA) DNA: ATGGTGTGTGTAGGTTAATGTGAGGAGGAGAGGTGAAGAAGGAGGAGAGAAGAAGGAGGC", "values": [{"measurement": "binding result", "setting": "RAD51;BRCA2 TR2 peptide [2]", "value": "binds"}]}
